Patent US7271171B2, “Adenosine A3 receptor modulators” (King Pharmaceuticals Research and Development, Inc., priority 1998, dated 2007)
pKi: −log10 of the molar value. Read-outs that look alike come from different tables or passages of the source.

Legend:
[1] = target: T1, human recombinant A3 adenosine receptor (Homo sapiens, UniProt P0DMS8); assay: Human cloned A3 adenosine receptor binding assay, [125I]AB-MECA, HEK-293 membranes; set-up: USA; host or cells: HEK-293; conditions: for pKi: HEK-293 membranes, [125I]AB-MECA, read-out: hA3 (Ki); for rA1/hA3 / rA2A/hA3: selectivity ratio of Ki values
T1 sequence (P0DMS8 1-318): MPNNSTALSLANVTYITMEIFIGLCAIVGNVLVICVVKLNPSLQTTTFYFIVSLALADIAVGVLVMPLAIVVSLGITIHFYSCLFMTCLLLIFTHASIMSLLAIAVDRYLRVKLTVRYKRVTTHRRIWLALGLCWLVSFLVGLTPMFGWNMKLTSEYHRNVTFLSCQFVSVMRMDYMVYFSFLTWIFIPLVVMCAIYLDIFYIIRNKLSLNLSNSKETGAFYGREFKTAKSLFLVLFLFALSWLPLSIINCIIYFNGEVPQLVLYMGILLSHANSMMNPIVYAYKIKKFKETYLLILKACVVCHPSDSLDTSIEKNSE

rA2A adenosine receptor = target: T2, rA2A adenosine receptor (Rattus norvegicus, UniProt P30543); assay: Rat A2A adenosine receptor binding assay, [3H]SCH58261 displacement, rat striatum membranes
T2 construct: membranes of rat striatum (80-100 μmg of protein/assay); from tissue; host or cells: striatum of male Wistar rats
Method: (§1) Male Wistar rats (200-250 g) were decapitated and the whole brain and striatum dissected on ice. […] The homogenate was centrifuged at 48,000 for 10 min, and the pellet was resuspended in the same buffer containing 2 IU/mL adenosine deaminase. After 30 min incubation at 37° C., the membranes were centrifuged and pellets were stored at −80° C. Prior to freezing, an aliquot of homogenate was removed for protein assay with bovine albumin as reference standard. Binding assays were performed on rat brain and striatum membranes respectively, in the presence of 10 mM MgCl2 at 25° C.
(§2) Separation of bound from free radio ligand was performed by rapid filtration through Whatman GF/B filters which were washed three times with ice-cold buffer. Filter bound radioactivity was measured by scintillation spectrometry after addition of 5 mL of Aquassure. […] Ki values were calculated from the Cheng-Prusoff equation. All binding data were analyzed using the nonlinear regression curve-fitting computer program LIGAND.

rA1 adenosine receptor = target: T3, rA1 adenosine receptor (Rattus norvegicus, UniProt P25099); assay: Rat A1 adenosine receptor binding assay, [3H]CHA displacement, rat brain membranes
T3 construct: membranes of rat brain (150-200 μg- of protein/assay); from tissue; host or cells: whole brain of male Wistar rats
T3 sequence (P25099 1-326): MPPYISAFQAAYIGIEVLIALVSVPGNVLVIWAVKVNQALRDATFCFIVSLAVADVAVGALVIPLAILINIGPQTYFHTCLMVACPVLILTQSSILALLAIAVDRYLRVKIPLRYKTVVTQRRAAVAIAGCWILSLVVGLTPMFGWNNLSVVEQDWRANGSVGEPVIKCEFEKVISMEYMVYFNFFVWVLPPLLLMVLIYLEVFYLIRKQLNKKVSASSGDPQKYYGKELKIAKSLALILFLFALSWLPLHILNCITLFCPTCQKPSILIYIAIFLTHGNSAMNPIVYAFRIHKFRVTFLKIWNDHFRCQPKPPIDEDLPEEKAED
Method: as §1, §2

[2] = rat striatum membranes, [3H]SCH58261, read-out: rA2A (Ki)

T2 sequence (P30543 whole entry): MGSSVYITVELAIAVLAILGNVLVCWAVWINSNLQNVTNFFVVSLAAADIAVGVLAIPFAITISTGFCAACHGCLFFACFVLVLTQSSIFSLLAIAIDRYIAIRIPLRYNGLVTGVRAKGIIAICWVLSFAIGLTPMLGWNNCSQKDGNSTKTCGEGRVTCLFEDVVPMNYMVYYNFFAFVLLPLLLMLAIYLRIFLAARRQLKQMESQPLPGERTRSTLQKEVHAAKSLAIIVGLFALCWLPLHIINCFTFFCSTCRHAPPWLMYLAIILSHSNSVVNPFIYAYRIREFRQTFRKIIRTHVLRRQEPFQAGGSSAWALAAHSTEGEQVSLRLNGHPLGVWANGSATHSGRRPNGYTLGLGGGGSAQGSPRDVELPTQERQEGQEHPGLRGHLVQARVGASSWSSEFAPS

SMILES	pKi [1]	rA1/hA3 [1]	rA2A/hA3 [1]	pKi (rA2A adenosine receptor; [2])	pKi (rA1 adenosine receptor)	affinity at human adenosine A3 receptor subtype (in words) ([1]; discussion of Table 1)	affinity for A2A adenosine receptors (in words) (rA2A adenosine receptor)	pKi (rA2A adenosine receptor; read-out: rA2A (Ki))	affinity and selectivity for the A3 receptor subtype (in words) ([1]; discussion of Table 1)	pKi (rA2A adenosine receptor)
Cn1cc2c(nc(N)n3nc(-c4ccco4)nc23)n1 [Compound 34, 5-Amino-8-methyl-2-(2-furyl)-pyrazolo[4,3-e]1,2,4-triazolo[1,5-c]pyrimidine]	6.25	0.56	0.05	7.51						
CCn1cc2c(nc(N)n3nc(-c4ccco4)nc23)n1 [Compound 35, 5-Amino-8-ethyl-2-(2-furyl)-pyrazolo[4,3-e]1,2,4-triazolo[1,5-c]pyrimidine]	5.45	0.03	0.003	7.95	7.02					
CCCn1cc2c(nc(N)n3nc(-c4ccco4)nc23)n1 [Compound 36, 5-Amino-8-propyl-2-(2-furyl)-pyrazolo[4,3-e]1,2,4-triazolo[1,5-c]pyrimidine]	6.21	0.22	0.03	7.69	6.86					
CCCCn1cc2c(nc(N)n3nc(-c4ccco4)nc23)n1 [Compound 37, 5-Amino-8-butyl-2-(2-furyl)-pyrazolo[4,3-e]1,2,4-triazolo[1,5-c]pyrimidine]	5.96	0.02	0.003		7.58					
CC(C)CCn1cc2c(nc(N)n3nc(-c4ccco4)nc23)n1 [Compound 38, 5-Amino-8-isopentyl-2-(2-furyl)-pyrazolo[4,3-e]1,2,4-triazolo[1,5-c]pyrimidine]	5.93				8.09	low affinity				
CC(C)=CCn1cc2c(nc(N)n3nc(-c4ccco4)nc23)n1 [Compound 39, 5-Amino-8-(2-isopentenyl)-2-(2-furyl)-pyrazolo[4,3-e]1,2,4-triazolo[1,5-c]pyrimidine]	6.05	0.01	0.001	8.84	8.00					
Nc1nc2nn(CCc3ccccc3)cc2c2nc(-c3ccco3)nn12 [Compound 40, 5-Amino-8-(2-(phenyl)ethyl)-2-(2-furyl)-pyrazolo[4,3-e]1,2,4-triazolo[1,5-c]pyrimidine]	5.56				8.67	low affinity	great affinity	9.15		
Nc1nc2nn(CCCc3ccccc3)cc2c2nc(-c3ccco3)nn12 [Compound 41, 5-Amino-8-(3-(phenyl)propyl)-2-(2-furyl)-pyrazolo[4,3-e]1,2,4-triazolo[1,5-c]pyrimidine]	5.57			9.23	7.95	low affinity				
Cn1cc2c(nc(NC(=O)Nc3cccc(Cl)c3)n3nc(-c4ccco4)nc23)n1 [Compound 42, 5-[[(3-Chlorophenyl)amino]carbonyl]amino-8-methyl-2-(2-furyl)-pyrazolo[4,3-e]1,2,4-triazolo[1,5-c]pyrimidine]	9.66	22,931	>45,454	< 5.00	5.30					
COc1ccc(NC(=O)Nc2nc3nn(C)cc3c3nc(-c4ccco4)nn23)cc1 [Compound 43, 5-[[(4-Methoxyphenyl)amino]carbonyl]amino-8-methyl-2-(2-furyl)-pyrazolo[4,3-e]1,2,4-triazolo[1,5-c]pyrimidine]	10.00	>100,000	>100,000	< 5.00	< 5.00					
CCn1cc2c(nc(NC(=O)Nc3cccc(Cl)c3)n3nc(-c4ccco4)nc23)n1 [Compound 44, 5-[[(3-Chlorophenyl)amino]carbonyl]amino-8-ethyl-2-(2-furyl)-pyrazolo[4,3-e]1,2,4-triazolo[1,5-c]pyrimidine]	8.68	1,291	1,339	5.55	5.57					
CCn1cc2c(nc(NC(=O)Nc3ccc(OC)cc3)n3nc(-c4ccco4)nc23)n1 [Compound 45, 5-[[(4-Methoxyphenyl)amino]carbonyl]amino-8-ethyl-2-(2-furyl)-pyrazolo[4,3-e]1,2,4-triazolo[1,5-]pyrimidine]	9.55	>35,714	>35,714						high affinity and selectivity	
CCCn1cc2c(nc(NC(=O)Nc3cccc(Cl)c3)n3nc(-c4ccco4)nc23)n1 [Compound 46, 5-[[(3-Chlorophenyl)amino]carbonyl]amino-8-propyl-2-(2-furyl)-pyrazolo[4,3-e]1,2,4-triazolo[1,5-c]pyrimidine]	9.31	3,228	>20,408	> 5.00	5.80					
CCCn1cc2c(nc(NC(=O)Nc3ccc(OC)cc3)n3nc(-c4ccco4)nc23)n1 [Compound 47, 5-[[(4-Methoxyphenyl)amino]carbonyl]amino-8-propyl-2-(2-furyl)-pyrazolo[4,3-e]1,2,4-triazolo[1,5-c]pyrimidine]					< 5.00					
CCCCn1cc2c(nc(NC(=O)Nc3cccc(Cl)c3)n3nc(-c4ccco4)nc23)n1 [Compound 48, 5-[[(3-Chlorophenyl)amino]carbonyl]amino-8-butyl-2-(2-furyl)-pyrazolo[4,3-e]1,2,4-triazolo[1,5-c]pyrimidine]	9.12	2,020	664	6.30	5.82					
CCCCn1cc2c(nc(NC(=O)Nc3ccc(OC)cc3)n3nc(-c4ccco4)nc23)n1 [Compound 49, 5-[[(4-Methoxyphenyl)amino]carbonyl]amino-8-butyl-2-(2-furyl)-pyrazolo[4,3-e]1,2,4-triazolo[1,5-c]pyrimidine]	9.52				5.68					6.19
CC(C)CCn1cc2c(nc(NC(=O)Nc3cccc(Cl)c3)n3nc(-c4ccco4)nc23)n1 [Compound 50, 5-[[(3-Chlorophenyl)amino]carbonyl]amino-8-isopentyl-2-(2-furyl)-pyrazolo[4,3-e]1,2,4-triazolo[1,5-c]pyrimidine]	7.09	20	15	5.92	5.78					
COc1ccc(NC(=O)Nc2nc3nn(CCC(C)C)cc3c3nc(-c4ccco4)nn23)cc1 [Compound 51, 5-[[(4-Methoxyphenyl)amino]carbonyl]amino-8-isopentyl-2-(2-furyl)-pyrazolo[4,3-e]1,2,4-triazolo[1,5-c]pyrimidine]	7.53	16	13	6.42	6.32					
CC(C)=CCn1cc2c(nc(NC(=O)Nc3cccc(Cl)c3)n3nc(-c4ccco4)nc23)n1 [Compound 52]	6.83	25.4	9.8	5.84	5.43					
COc1ccc(NC(=O)Nc2nc3nn(CC=C(C)C)cc3c3nc(-c4ccco4)nn23)cc1 [Compound 53, 5-[[(4-Methoxyphenyl)amino]carbonyl]amino-8-(2-isopentenyl)-2-(2-furyl)-pyrazolo[4,3-e]1,2,4-triazolo[1,5-c]pyrimidine]	7.53	179	>338	< 5.00	5.28					
